# Read-outs that look alike come from different tables or passages of the source.
# Target: ATR kinase (full-length ATR) (Homo sapiens (Human), UniProt Q13535)
# Assay: ATR inhibition assay (radioactive-phosphate incorporation)
# Type: biochemical
# In short: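 Radiometric 33P incorporation by 5 nM full-length ATR into 800 μM target peptide with 10 μM [γ-33P]ATP, in 50 mM Tris/HCl pH 7.5, 10 mM MgCl2, 1 mM DTT, 7% DMSO, 25° C. Compound pre-incubated 10 minutes; reaction stopped after 24 hours, captured on phosphocellulose. Ki(app) from non-linear regression of initial rates.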
# [1] = Ki(app), 5 nM full-length ATR, 10 μM ATP, 25° C.
# Chain of ATR kinase (full-length ATR) (Q13535 whole entry): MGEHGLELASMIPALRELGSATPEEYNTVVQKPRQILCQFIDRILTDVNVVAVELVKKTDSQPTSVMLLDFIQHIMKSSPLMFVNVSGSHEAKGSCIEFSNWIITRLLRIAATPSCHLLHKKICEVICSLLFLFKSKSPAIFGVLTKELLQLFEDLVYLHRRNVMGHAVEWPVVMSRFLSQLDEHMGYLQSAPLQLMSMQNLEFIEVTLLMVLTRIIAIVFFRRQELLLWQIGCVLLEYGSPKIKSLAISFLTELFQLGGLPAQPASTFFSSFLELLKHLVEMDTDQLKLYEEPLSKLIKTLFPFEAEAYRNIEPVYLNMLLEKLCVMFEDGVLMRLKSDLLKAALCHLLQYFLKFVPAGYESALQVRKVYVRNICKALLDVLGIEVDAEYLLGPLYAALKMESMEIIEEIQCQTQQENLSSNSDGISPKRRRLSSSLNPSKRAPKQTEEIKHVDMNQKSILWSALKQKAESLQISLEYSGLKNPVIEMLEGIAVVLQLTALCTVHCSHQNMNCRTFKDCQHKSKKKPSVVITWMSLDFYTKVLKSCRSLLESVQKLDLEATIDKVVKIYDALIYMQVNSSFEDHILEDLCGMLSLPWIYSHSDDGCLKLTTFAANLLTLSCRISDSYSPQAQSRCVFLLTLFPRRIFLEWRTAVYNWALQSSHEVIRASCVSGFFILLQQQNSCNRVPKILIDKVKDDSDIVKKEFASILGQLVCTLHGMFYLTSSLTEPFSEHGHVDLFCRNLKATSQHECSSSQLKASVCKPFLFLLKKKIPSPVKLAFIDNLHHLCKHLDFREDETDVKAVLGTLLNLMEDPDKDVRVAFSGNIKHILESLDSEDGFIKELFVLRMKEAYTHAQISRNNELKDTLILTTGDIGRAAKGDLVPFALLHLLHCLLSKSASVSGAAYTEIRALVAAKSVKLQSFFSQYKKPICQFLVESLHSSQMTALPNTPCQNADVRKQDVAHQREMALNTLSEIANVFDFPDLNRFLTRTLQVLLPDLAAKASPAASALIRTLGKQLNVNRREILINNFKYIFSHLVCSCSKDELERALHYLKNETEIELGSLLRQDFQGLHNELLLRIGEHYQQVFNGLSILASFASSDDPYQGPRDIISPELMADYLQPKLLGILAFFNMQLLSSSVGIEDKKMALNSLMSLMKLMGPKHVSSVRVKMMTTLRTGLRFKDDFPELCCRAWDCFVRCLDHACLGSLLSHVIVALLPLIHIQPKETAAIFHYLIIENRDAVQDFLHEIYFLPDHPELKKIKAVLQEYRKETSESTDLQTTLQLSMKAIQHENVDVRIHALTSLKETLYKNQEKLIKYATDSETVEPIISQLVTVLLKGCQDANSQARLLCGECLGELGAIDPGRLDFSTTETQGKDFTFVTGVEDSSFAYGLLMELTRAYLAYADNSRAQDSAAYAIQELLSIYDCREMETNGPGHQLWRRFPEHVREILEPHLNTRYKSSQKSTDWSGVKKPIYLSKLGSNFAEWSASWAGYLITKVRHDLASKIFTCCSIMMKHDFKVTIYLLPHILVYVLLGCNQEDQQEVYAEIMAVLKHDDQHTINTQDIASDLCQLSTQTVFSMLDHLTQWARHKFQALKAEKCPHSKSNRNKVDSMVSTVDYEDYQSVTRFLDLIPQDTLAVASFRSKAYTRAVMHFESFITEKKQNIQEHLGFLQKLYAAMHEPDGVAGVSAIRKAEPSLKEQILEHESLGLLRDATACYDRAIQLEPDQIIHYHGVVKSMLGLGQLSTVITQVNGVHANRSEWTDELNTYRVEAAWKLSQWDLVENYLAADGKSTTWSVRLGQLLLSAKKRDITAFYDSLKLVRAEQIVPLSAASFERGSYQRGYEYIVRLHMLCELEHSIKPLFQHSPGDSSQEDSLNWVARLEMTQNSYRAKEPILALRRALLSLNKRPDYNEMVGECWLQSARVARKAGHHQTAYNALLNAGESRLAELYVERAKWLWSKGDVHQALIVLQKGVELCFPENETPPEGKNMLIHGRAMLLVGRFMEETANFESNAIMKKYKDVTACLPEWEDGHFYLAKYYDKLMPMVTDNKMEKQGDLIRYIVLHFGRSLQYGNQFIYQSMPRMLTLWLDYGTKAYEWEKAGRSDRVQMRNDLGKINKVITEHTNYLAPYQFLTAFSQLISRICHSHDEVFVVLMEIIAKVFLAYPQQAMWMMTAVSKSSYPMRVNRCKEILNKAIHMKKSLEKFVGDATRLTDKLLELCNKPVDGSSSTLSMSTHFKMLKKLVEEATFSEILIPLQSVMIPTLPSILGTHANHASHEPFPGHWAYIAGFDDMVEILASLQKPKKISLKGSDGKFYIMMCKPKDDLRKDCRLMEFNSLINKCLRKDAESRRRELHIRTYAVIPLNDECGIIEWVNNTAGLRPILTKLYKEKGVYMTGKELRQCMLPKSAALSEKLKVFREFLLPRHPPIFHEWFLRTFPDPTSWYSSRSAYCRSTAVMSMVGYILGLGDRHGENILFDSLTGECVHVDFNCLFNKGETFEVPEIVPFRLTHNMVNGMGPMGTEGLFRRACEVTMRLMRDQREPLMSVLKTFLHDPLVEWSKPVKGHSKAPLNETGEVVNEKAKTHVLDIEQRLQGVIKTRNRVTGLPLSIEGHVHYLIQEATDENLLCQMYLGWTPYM
Structure (SMILES),Ki [1] [nM],Ki [nM]
"CN(C)C(=O)C1CCN(c2ccncc2NC(=O)c2c(N)nn3cc(F)cnc23)CC1 [I-G-2, 2-amino-N-(4-(4-(dimethylcarbamoyl)piperidin-1-yl)pyridin-3-yl)-6-fluoropyrazolo[1,5-a]pyrimidine-3-carboxamide]",10 to 1000,
"Nc1nn2cc(Cl)cnc2c1C(=O)Nc1cnccc1OC1CCNCC1 [I-O-80, 2-amino-6-chloro-N-(4-(piperidin-4-yloxy)pyridin-3-yl)pyrazolo[1,5-a]pyrimidine-3-carboxamide]",10 to 1000,
"Nc1nn2cc(Cl)cnc2c1C(=O)Nc1cnccc1N1CCC(N2CCC2)CC1 [I-N-93, 2-amino-N-(4-(4-(azetidin-1-yl)piperidin-1-yl)pyridin-3-yl)-6-chloropyrazolo[1,5-a]pyrimidine-3-carboxamide]",10 to 1000,
"N#CCc1cnc2c(C(=O)Nc3cnccc3OCCN)c(N)nn2c1 [I-O-83, 2-amino-N-(4-(2-aminoethoxy)pyridin-3-yl)-6-(cyanomethyl)pyrazolo[1,5-a]pyrimidine-3-carboxamide]",< 10,
"Nc1nn2cc(F)cnc2c1C(=O)Nc1cncc(F)c1N1CCC(N2CCOCC2)CC1 [I-N-189, 2-amino-6-fluoro-N-(5-fluoro-4-(4-morpholinopiperidin-1-yl)pyridin-3-yl)pyrazolo[1,5-a]pyrimidine-3-carboxamide]",10 to 1000,
"Nc1nn2cc(F)cnc2c1C(=O)Nc1cncc(F)c1N1CCN(C(=O)CN2CCC2)CC1 [I-N-160, 2-amino-N-(4-(4-(2-(azetidin-1-yl)acetyl)piperazin-1-yl)-5-fluoropyridin-3-yl)-6-fluoropyrazolo[1,5-a]pyrimidine-3-carboxamide]",10 to 1000,
"CC1(O)CN(C(=O)C2CCN(c3c(F)cncc3NC(=O)c3c(N)nn4cc(F)cnc34)CC2)C1 [I-G-63, 2-amino-6-fluoro-N-(5-fluoro-4-(4-(3-hydroxy-3-methylazetidine-1-carbonyl)piperidin-1-yl)pyridin-3-yl)pyrazolo[1,5-a]pyrimidine-3-carboxamide]",10 to 1000,
"Cc1cncc(NC(=O)c2c(N)nn3cc(F)cnc23)c1N1CCC(C(=O)N2CCNCC2)CC1 [I-G-56, 2-amino-6-fluoro-N-(5-methyl-4-(4-(piperazine-1-carbonyl)piperidin-1-yl)pyridin-3-yl)pyrazolo[1,5-a]pyrimidine-3-carboxamide]",10 to 1000,
"Nc1nn2cc(F)cnc2c1C(=O)Nc1cncc(F)c1N1CCC(C(=O)N2CCN(C3CCC3)CC2)CC1 [I-G-35, 2-amino-N-(4-(4-(4-cyclobutylpiperazine-1-carbonyl)piperidin-1-yl)-5-fluoropyridin-3-yl)-6-fluoropyrazolo[1,5-a]pyrimidine-3-carboxamide]",10 to 1000,
"Nc1nn2cc(F)cnc2c1C(=O)Nc1cnccc1-c1ccnnc1 [I-C-26, 2-amino-6-fluoro-N-(4-(pyridazin-4-yl)pyridin-3-yl)pyrazolo[1,5-a]pyrimidine-3-carboxamide]",10 to 1000,
"CN1CC2(CCN(c3ccncc3NC(=O)c3c(N)nn4cc(F)cnc34)CC2)CC1=O [I-N-236, 2-amino-6-fluoro-N-(4-(2-methyl-3-oxo-2,8-diazaspiro[4.5]decan-8-yl)pyridin-3-yl)pyrazolo[1,5-a]pyrimidine-3-carboxamide]",10 to 1000,
"COCCOc1ccncc1NC(=O)c1c(N)nn2cc(CC#N)cnc12 [I-O-29, 2-amino-6-(cyanomethyl)-N-(4-(2-methoxyethoxy)pyridin-3-yl)pyrazolo[1,5-a]pyrimidine-3-carboxamide]",< 10,
"N#CCc1cnc2c(C(=O)Nc3cnccc3OC3CCOC3)c(N)nn2c1 (racemic) [I-O-37, (R,S)-2-amino-6-(cyanomethyl)-N-(4-((tetrahydrofuran-3-yl)oxy)pyridin-3-yl)pyrazolo[1,5-a]pyrimidine-3-carboxamide]",< 10,
"CN1CCC[C@@H]1C(=O)N1CCN(c2c(F)cncc2NC(=O)c2c(N)nn3cc(F)cnc23)CC1 [I-N-181, (R)-2-amino-6-fluoro-N-(5-fluoro-4-(4-(1-methylpyrrolidine-2-carbonyl)piperazin-1-yl)pyridin-3-yl)pyrazolo[1,5-a]pyrimidine-3-carboxamide]",10 to 1000,
"N#CCc1cnc2c(C(=O)Nc3cnccc3OC3CCNCC3)c(N)nn2c1 [I-O-84, 2-amino-6-(cyanomethyl)-N-(4-(piperidin-4-yloxy)pyridin-3-yl)pyrazolo[1,5-a]pyrimidine-3-carboxamide]",< 10,
"Nc1nn2cc(F)cnc2c1C(=O)Nc1cnccc1-c1cncnc1 [I-C-28, 2-amino-6-fluoro-N-(4-(pyrimidin-5-yl)pyridin-3-yl)pyrazolo[1,5-a]pyrimidine-3-carboxamide]",10 to 1000,
"Nc1nn2cc(F)cnc2c1C(=O)Nc1cnccc1N1CCN2[C@@H](CCS2(=O)=O)C1 [I-N-247, (S)-2-amino-N-(4-(1,1-dioxidotetrahydro-2H-isothiazolo[2,3-a]pyrazin-5(3H)-yl)pyridin-3-yl)-6-fluoropyrazolo[1,5-a]pyrimidine-3-carboxamide]",10 to 1000,
CN1CC(C(=O)N2CCN(c3c(F)cncc3NC(=O)c3c(N)nn4cc(F)cnc34)CC2)C1 [I-N-194],10 to 1000,

Structure (SMILES),Ki [1] [nM],Ki [nM]
"CN1CC[C@@H](Oc2ccncc2NC(=O)c2c(N)nn3cc(Cl)cnc23)C1 [I-O-63, (R)-2-amino-6-chloro-N-(4-((1-methylpyrrolidin-3-yl)oxy)pyridin-3-yl)pyrazolo[1,5-a]pyrimidine-3-carboxamide]",10 to 1000,
"Nc1nn2cc(F)cnc2c1C(=O)Nc1cnccc1C1CCOC1 (centres unmarked) [I-C-75, 2-amino-6-fluoro-N-(4-(tetrahydrofuran-3-yl)pyridin-3-yl)pyrazolo[1,5-a]pyrimidine-3-carboxamide]",10 to 1000,
"Nc1nn2cc(F)cnc2c1C(=O)Nc1cncc(Cl)c1N1CCC(C(=O)N2CCNCC2)CC1 [I-G-48, 2-amino-N-(5-chloro-4-(4-(piperazine-1-carbonyl)piperidin-1-yl)pyridin-3-yl)-6-fluoropyrazolo[1,5-a]pyrimidine-3-carboxamide]",10 to 1000,
"CN(C)CCOc1cc(Cl)ncc1NC(=O)c1c(N)nn2cc(Cl)cnc12 [I-O-68, 2-amino-6-chloro-N-(6-chloro-4-(2-(dimethylamino)ethoxy)pyridin-3-yl)pyrazolo[1,5-a]pyrimidine-3-carboxamide]",10 to 1000,
"CN1CCN(c2ccncc2NC(=O)c2c(N)nn3cc(F)cnc23)CC1 [I-N-3, 2-amino-6-fluoro-N-(4-(4-methylpiperazin-1-yl)pyridin-3-yl)pyrazolo[1,5-a]pyrimidine-3-carboxamide]",10 to 1000,
"Nc1nn2cc(F)cnc2c1C(=O)Nc1cncc(F)c1N1CCN(C(=O)C23CCN(CC2)CC3)CC1 [I-N-134, 2-amino-6-fluoro-N-(5-fluoro-4-(4-(quinuclidine-4-carbonyl)piperazin-1-yl)pyridin-3-yl)pyrazolo[1,5-a]pyrimidine-3-carboxamide]",10 to 1000,
"CN1CC[C@@H](OC2CCN(c3c(F)cncc3NC(=O)c3c(N)nn4cc(F)cnc34)CC2)C1 [I-N-132, (R)-2-amino-6-fluoro-N-(5-fluoro-4-(4-((1-methylpyrrolidin-3-yl)oxy)piperidin-1-yl)pyridin-3-yl)pyrazolo[1,5-a]pyrimidine-3-carboxamide]",,10 to 1000
"N#CCc1cnc2c(C(=O)Nc3cnccc3OC3CCCNC3)c(N)nn2c1 (racemic) [I-O-2, (R,S)-2-amino-6-(cyanomethyl)-N-(4-(piperidin-3-yloxy)pyridin-3-yl)pyrazolo[1,5-a]pyrimidine-3-carboxamide]",< 10,
"Nc1nn2cc(F)cnc2c1C(=O)Nc1cnccc1N1CCC(C(=O)N2CCOCC2)CC1 [I-G-85, 2-amino-6-fluoro-N-(4-(4-(morpholine-4-carbonyl)piperidin-1-yl)pyridin-3-yl)pyrazolo[1,5-a]pyrimidine-3-carboxamide]",10 to 1000,
"COc1ccncc1NC(=O)c1c(N)nn2cc(F)cnc12 [I-O-4, 2-amino-6-fluoro-N-(4-methoxypyridin-3-yl)pyrazolo[1,5-a]pyrimidine-3-carboxamide]",10 to 1000,
"CN1CCOC(C(=O)N2CCN(c3c(F)cncc3NC(=O)c3c(N)nn4cc(F)cnc34)CC2)C1 (centres unmarked) [I-N-174, 2-amino-6-fluoro-N-(5-fluoro-4-(4-(4-methylmorpholine-2-carbonyl)piperazin-1-yl)pyridin-3-yl)pyrazolo[1,5-a]pyrimidine-3-carboxamide]",10 to 1000,
"Cc1nncn1-c1ccncc1NC(=O)c1c(N)nn2cc(F)cnc12 [I-N-263, 2-amino-6-fluoro-N-(4-(3-methyl-4H-1,2,4-triazol-4-yl)pyridin-3-yl)pyrazolo[1,5-a]pyrimidine-3-carboxamide]",10 to 1000,
"Nc1nn2cc(F)cnc2c1C(=O)Nc1cncc(Cl)c1N1CCNCC1 [I-N-126, 2-amino-N-(5-chloro-4-(piperazin-1-yl)pyridin-3-yl)-6-fluoropyrazolo[1,5-a]pyrimidine-3-carboxamide]",10 to 1000,
"Nc1nn2cc(Cl)cnc2c1C(=O)Nc1cncc(F)c1N1CCN(C2COC2)CC1 [I-N-117, 2-amino-6-chloro-N-(5-fluoro-4-(4-(oxetan-3-yl)piperazin-1-yl)pyridin-3-yl)pyrazolo[1,5-a]pyrimidine-3-carboxamide]",10 to 1000,
"CN1CCCN(C(=O)C2CCN(c3c(F)cncc3NC(=O)c3c(N)nn4cc(F)cnc34)CC2)CC1 [I-G-6, 2-amino-6-fluoro-N-(5-fluoro-4-(4-(4-methyl-1,4-diazepane-1-carbonyl)piperidin-1-yl)pyridin-3-yl)pyrazolo[1,5-a]pyrimidine-3-carboxamide]",10 to 1000,
"Nc1nn2cc(Cl)cnc2c1C(=O)Nc1cnccc1O[C@H]1C[C@]2(CCN2)C1 [I-O-78, N-(4-((4s,6r)-1-azaspiro[3.3]heptan-6-yloxy)pyridin-3-yl)-2-amino-6-chloropyrazolo[1,5-a]pyrimidine-3-carboxamide]",10 to 1000,
"Nc1nn2cc(Cl)cnc2c1C(=O)Nc1cnccc1OC1CCOCC1 [I-O-61, 2-amino-6-chloro-N-(4-((tetrahydro-2H-pyran-4-yl)oxy)pyridin-3-yl)pyrazolo[1,5-a]pyrimidine-3-carboxamide]",10 to 1000,

# Reference: patent US10392391B2 (Vertex Pharmaceuticals Incorporated, priority 2012, dated 2019)
